In experiment [1] the test system is NIH/3T3 cells transfected with control vector (MOCK). The experiment in a line: NIH/3T3 mock cell proliferation assay (CTG, counter assay). Format: cell-based. To be noted: Mus musculus, NIH3T3; 72-hr incubation, CellTiter Glo; counter assay for general toxicity. The procedure:
NIH/3T3 Mock Cell Proliferation Assay
In day 1, 90 μL of cell suspension (NIH/3T3 cells transfected with the same control vector as in the above two proliferation assays) (total 30,000 cells per well in growth medium (DMEM containing 1% Glutamax, 10% FBS and 1% Pen/Strep)) was seeded in a 96-well plate and then incubated overnight at 37° C. and 5% CO2. In day 2, 10 μL of growth medium containing 10-fold stock solution of testing compound was added into cell cultures (9 dose points with 3× serial dilution, starting with 30 μM, 0.3% DMSO final). After 72-hr incubation at 37° C. and 5% CO2, in day 5 a volume of 50 μL CellTiter Glo (CTG) reagent was added into cell-containing 96-well plate and the plate was incubated at room temperature for 10 minutes before RLUs (relative light unit) were measured on a microplate reader with luminescence detection module. The RLU value was normalized to survival % and concentration-response curve was plotted using Prism to calculate IC50 (M), pIC50 (−log IC50) and HillSlope value.

Experiment [2] concerns the target T1, human FGFR3 wild type enzyme (cytoplasmic domain) (Homo sapiens, UniProt P22607).
T1 construct: human FGFR3 wild type enzyme (cytoplasmic domain, from Cama Biosciences); purchased Carna Biosciences
The experiment in a line: FGFR3 wild type mobility shift assay (enzymatic assay, Caliper). Format: biochemical. To be noted: 75 μM ATP, 50 minutes at 30° C. The procedure:
FGFR3 Wild Type Mobility Shift Assay (Enzymatic Assay)
In a final reaction volume of 25 μL, 0.04 ng/μL human FGFR3 wild type enzyme (cytoplasmic domain, from Cama Biosciences) was incubated with 75 μM ATP, 1 μM FL-peptide 30 substrate and 250 nL of testing compound (1% DMSO final) in assay buffer (100 mM HEPES pH 7.4, 10 mM MgCl2, 0.003% Brij35, 1 mM DTT). After incubation for 50 minutes at 30° C. the reaction was stopped with 10 μL of 0.5M EDTA pH 8.0, and then L of reaction mixture was transferred to reading plate and measured on Caliper EZ reader II.

In experiment [3] the target is T2, human FGFR3 V555M enzyme (cytoplasmic domain carrying V555M mutation) (Homo sapiens, UniProt P22607, V555M).
T2 construct: cytoplasmic domain carrying V555M mutation, from Carna Biosciences; purchased Carna Biosciences
T2 sequence (P22607 397-806 V555M limits assumed): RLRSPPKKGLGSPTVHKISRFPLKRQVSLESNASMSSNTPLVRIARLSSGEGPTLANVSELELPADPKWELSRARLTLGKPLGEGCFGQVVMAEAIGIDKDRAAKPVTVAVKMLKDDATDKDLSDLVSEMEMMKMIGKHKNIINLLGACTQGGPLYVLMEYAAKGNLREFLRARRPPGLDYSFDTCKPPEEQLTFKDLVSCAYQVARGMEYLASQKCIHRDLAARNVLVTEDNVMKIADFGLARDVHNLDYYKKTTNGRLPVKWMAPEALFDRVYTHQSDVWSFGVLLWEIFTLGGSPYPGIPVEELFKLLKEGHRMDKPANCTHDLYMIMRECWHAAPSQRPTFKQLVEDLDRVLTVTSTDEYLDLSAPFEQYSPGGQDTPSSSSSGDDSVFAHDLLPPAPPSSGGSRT
The experiment can be described thus: FGFR3 V555M mobility shift assay (enzymatic assay, Caliper). Format: biochemical. The note with it: 30 μM ATP, 45 minutes at 30° C. The protocol:
FGFR3 V555M Mobility Shift Assay (Enzymatic Assay)
In a final reaction volume of 25 μL, 0.04 ng/μL human FGFR3 V555M enzyme (cytoplasmic domain carrying V555M mutation, from Carna Biosciences) was incubated with 30 μM ATP, 1 μM FL-peptide 30 substrate and 250 nL of testing compound (1% DMSO final) in assay buffer (100 mM HEPES pH 7.4, 10 mM MgCl2, 0.003% Brij35, 1 mM DTT). After incubation for 45 minutes at 30° C. the reaction was stopped with 10 μL of 0.5M EDTA pH 8.0, and then L of reaction mixture was transferred to reading plate and measured on Caliper EZ reader II.

Counter-ions that a name gives are not always drawn.

T1 sequence (P22607 397-806 limits assumed): as the sequence (P22607 397-806 V555M limits assumed) above, with M159V counted along it

What is called IC50 is the concentration needed to halve the response being measured. Take `CC(C)[C@H](Nc1c(-c2nc3ncc(N(C)C)cc3[nH]2)c(=O)[nH]c2cn(C)nc12)c1ncccn1` (single isomer, unassigned) [Compound 23, (S*)-6-(6-(dimethylamino)-1H-imidazo[4,5-b]pyridin-2-yl)-2-methyl-7-((2-methyl-1-(pyrimidin-2-yl)propyl)amino)-2H-pyrazolo[4,3-b]pyridin-5 (4H)-one 0.14 formate]: the IC50 in experiment [1] was determined as 943 nM; in experiment [2], 3.52 nM; in experiment [3], 0.401 nM.

Turning to `CCn1cc2[nH]c(=O)c(-c3nc4ccc(OC)cc4[nH]3)c(N[C@@H](C)c3ncccn3)c2n1` [Compound 4, (S)-2-ethyl-6-(6-methoxy-1H-benzo[d]imidazol-2-yl)-7-((1-(pyrimidin-2-yl)ethyl)amino)-2H-pyrazolo[4,3-b]pyridin-5 (4H)-one], the IC50 in experiment [1] was 735 nM; in experiment [2], 3.36 nM; in experiment [3] it was 0.998 nM. With `CCn1cc2[nH]c(=O)c(-c3nc4c(OC)cccc4[nH]3)c(N[C@@H](C)c3ncccn3)c2n1` [Compound 32, (S)-2-ethyl-6-(4-methoxy-1H-benzo[d]imidazol-2-yl)-7-((1-(pyrimidin-2-yl)ethyl)amino)-2H-pyrazolo[4,3-b]pyridin-5 (4H)-one], the IC50 in experiment [1] was 1490 nM; in experiment [2], 5.45 nM; in experiment [3] it was 2.03 nM. The corresponding values for `CCn1cc2[nH]c(=O)c(-c3nc4ccc(OCCOC)cc4[nH]3)c(N[C@@H](C)c3ncccn3)c2n1` [Compound 54, (S)-2-ethyl-6-(6-(2-methoxyethoxy)-1H-benzo[d]imidazol-2-yl)-7-((1-(pyrimidin-2-yl)-ethyl)amino)-2H-pyrazolo[4,3-b]pyridin-5 (4H)-one] are 689 nM, 1.64 nM and 0.562 nM. Consider `COc1cc2nc(-c3c(NC(c4ncccn4)C4CC4)c4nn(C)cc4[nH]c3=O)[nH]c2cc1OC` (single isomer, unassigned) [Compound 46, (S*)-7-((cyclopropyl(pyrimidin-2-yl)methyl)amino)-6-(5,6-dimethoxy-1H-benzo[d]-imidazol-2-yl)-2-methyl-2H-pyrazolo[4,3-b]pyridin-5 (4H)-one], for which the half-inhibitory concentration (IC50) was 682 nM in experiment [1], 2.44 nM in experiment [2] and 0.566 nM in experiment [3]. As for `COC[C@@H](Nc1c(-c2nc3cc(OC)c(OC)cc3[nH]2)c(=O)[nH]c2cn(C)nc12)c1ncccn1` (single isomer, unassigned) [Compound 25, (S*)-6-(5,6-dimethoxy-H-benzo[d]imidazol-2-yl)-7-((2-methoxy-1-(pyrimidin-2-yl)-ethyl)amino)-2-methyl-2H-pyrazolo[4,3-b]pyridin-5 (4H)-one], the half-maximal inhibitory concentration (IC50) in experiment [1] turned out to be 4550 nM. Same read-out and setting: under `CC(C)[C@H](Nc1c(-c2nc3ccc(C(=O)N(C)C)cc3[nH]2)c(=O)[nH]c2cn(C)nc12)c1ncccn1` (single isomer, unassigned) [Compound 10, (S*)—N,N-dimethyl-2-(2-methyl-7-((2-methyl-1-(pyrimidin-2-yl)propyl)amino)-5-oxo-4,5-dihydro-2H-pyrazolo[4,3-b]pyridin-6-yl)-1H-benzo[d]imidazole-6-carboxamide] stands 1370 nM. Take `COCCOc1cc2[nH]c(-c3c(NC(c4ncccn4)C(C)C)c4nn(C)cc4[nH]c3=O)nc2cc1OC` (single isomer, unassigned) [Compound 36, (S*)-6-(5-methoxy-6-(2-methoxyethoxy)-1H-benzo[d]imidazol-2-yl)-2-methyl-7-((2-methyl-1-(pyrimidin-2-yl)propyl)amino)-2H-pyrazolo[4,3-b]pyridin-5 (4H)-one]: the values for the IC50 in experiment [1], in experiment [2] and in experiment [3] were 757 nM, 2.25 nM and 0.503 nM, respectively.

With `CC(C)[C@H](Nc1c(-c2nc3cnc(N(C)C)cc3[nH]2)c(=O)[nH]c2cn(C)nc12)c1ncccn1` (single isomer, unassigned) [Compound 11, (S*)-6-(6-(dimethylamino)-1H-imidazo[4,5-c]pyridin-2-yl)-2-methyl-7-((2-methyl-1-(pyrimidin-2-yl)propyl)amino)-2H-pyrazolo[4,3-b]pyridin-5 (4H)-one], the IC50 in experiment [1] amounted to 1840 nM.

Regarding `CC(C)C(Nc1c(-c2nc3cnccc3[nH]2)c(=O)[nH]c2cn(C)nc12)c1ncccn1` (single isomer, unassigned) [Compound 24, (S*)-6-(1H-imidazo[4,5-c]pyridin-2-yl)-2-methyl-7-((2-methyl-1-(pyrimidin-2-yl)propyl)-amino)-2H-pyrazolo[4,3-b]pyridin-5 (4H)-one], 3010 nM corresponded to half-maximal inhibition in experiment [1] (IC50). With `COc1ccc2[nH]c(-c3c(NC(c4ncccn4)C(C)C)c4nn(C)cc4[nH]c3=O)nc2c1` (single isomer, unassigned) [Compound 15, (S*)-6-(5-Methoxy-1H-benzo[d]imidazol-2-yl)-2-methyl-7-((2-methyl-1-(pyrimidin-2-yl)-propyl)amino)-2H-pyrazolo[4,3-b]pyridin-5 (4H)-one], 1340 nM corresponded to half-maximal inhibition in experiment [1] (IC50). Compound `CC(C)[C@H](Nc1c(-c2nc3ccc(C(N)=O)cc3[nH]2)c(=O)[nH]c2cn(C)nc12)c1ncccn1` (single isomer, unassigned) [Compound 9, (S*)-2-(2-methyl-7-((2-methyl-1-(pyrimidin-2-yl)propyl)amino)-5-oxo-4,5-dihydro-2H-pyrazolo[4,3-b]pyridin-6-yl)-1H-benzo[d]imidazole-6-carboxamide] came in with an IC50 in experiment [1] of 2700 nM. Consider `COc1cc2nc(-c3c(N[C@H](c4ncccn4)C(C)C)c4nn(C)cc4[nH]c3=O)[nH]c2cc1OC` (single isomer, unassigned) [Compound 27, (S*)-6-(5,6-dimethoxy-H-benzo[d]imidazol-2-yl)-2-methyl-7-((2-methyl-1-(pyrimidin-2-yl)propyl)amino)-2H-pyrazolo[4,3-b]pyridin-5 (4H)-one], for which, in experiment [1], the IC50 came to 722 nM. With `COc1cc2nc(-c3c(NC(c4ncccn4)C4CC4)c4nn(C)cc4[nH]c3=O)[nH]c2cc1OC` (single isomer, unassigned) [Compound 47, (R*)-7-((cyclopropyl(pyrimidin-2-yl)methyl)amino)-6-(5,6-dimethoxy-1H-benzo[d]-imidazol-2-yl)-2-methyl-2H-pyrazolo[4,3-b]pyridin-5 (4H)-one], the IC50 in experiment [2] was determined as 99.6 nM; in experiment [3], 23.8 nM.

Take `COCCOc1cc2[nH]c(-c3c(NC(c4ncccn4)C(C)C)c4nn(C)cc4[nH]c3=O)nc2cc1OC` (single isomer, unassigned) [Compound 35, (R*)-6-(5-methoxy-6-(2-methoxyethoxy)-1H-benzo[d]imidazol-2-yl)-2-methyl-7-((2-methyl-1-(pyrimidin-2-yl)propyl)amino)-2H-pyrazolo[4,3-b]pyridin-5 (4H)-one]: the IC50 in experiment [2] is 298 nM; in experiment [3] it was 80.5 nM.

Take `CC[C@@H](Nc1c(-c2nc3cnc(N(C)C)cc3[nH]2)c(=O)[nH]c2cn(C)nc12)c1ncccn1` [Compound 21, (R)-6-(6-(dimethylamino)-1H-imidazo[4,5-c]pyridin-2-yl)-2-methyl-7-((1-(pyrimidin-2-yl)propyl)amino)-2H-pyrazolo[4,3-b]pyridin-5 (4H)-one]: the IC50 in experiment [2] was 1240 nM; in experiment [3] it was 347 nM. In experiment [1], `CCn1cc2[nH]c(=O)c(-c3nc4cc(OC)c(OC)cc4[nH]3)c(N[C@@H](C)c3cocn3)c2n1` (single isomer, unassigned) [Compound 5A, (S*)-6-(5,6-Dimethoxy-H-benzo[d]imidazol-2-yl)-2-ethyl-7-((1-(oxazol-4-yl)ethyl)-amino)-2H-pyrazolo[4,3-b]pyridin-5 (4H)-one] gave a 50% inhibitory concentration (IC50) of 380 nM.

`CCn1cc2[nH]c(=O)c(-c3nc4ccc(OC)cc4[nH]3)c(N[C@@H](C)c3cocn3)c2n1` (single isomer, unassigned) [Compound 33, (S*)-2-ethyl-6-(6-methoxy-1H-benzo[d]imidazol-2-yl)-7-((1-(oxazol-4-yl)ethyl)amino)-2H-pyrazolo[4,3-b]125yridine-5 (4H)-one]: the 50% inhibitory concentration (IC50) in experiment [2] is 23.7 nM; in experiment [3], 4.16 nM.

(Values after patent US11384099B2, “Pyrazolopyridinone compounds” (Janssen Pharmaceutica NV, priority 2017, dated 2022).)
